pIC50: −log10 of the molar value. Like-named read-outs stand apart in the source and are kept apart here.

In this assay the target is human P2X7 receptor (Homo sapiens, UniProt Q99572, R270H/Y155H). The assay can be described thus: Evaluation of human P2X7 receptor inhibitory activity (Yo-Pro uptake, BzATP stimulation, FLIPR TETRA). The class given is cell-based. The procedure, abridged: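 1321N1 cells stably expressing human P2X7 (T606C/G952A SNP variant), in HBSS buffer pH 7.4-7.5 with Yo-Pro, stimulated with BzATP; compound added 8 min after agonist. Fluorescence followed for 20 min on FLIPR; max-minus-min change gave % inhibition, IC50 by logistic fit.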

[1] abbreviates: 1321N1 cells stably expressing human P2X7 receptor, BzATP stimulation, Yo-Pro uptake, read-out: IC50 (antagonistic activity for the human P2X7 receptor), class symbol.
[2] abbreviates: antagonistic activity for the human P2X7 receptor, read-out: IC50.
Where [3] appears, read: 1321N1 cells stably expressing human P2X7 receptor, BzATP stimulation, Yo-Pro uptake, read-out: IC50 (antagonistic activity for the human P2X7 receptor).

In general, pIC50 refers to −log10 of the IC50, conventionally taken in molar units. For `CCc1ccc(OC)cc1Nc1nc(=O)c(OC)cn1Cc1ccc(F)c(Cl)c1` [Compound I-0246], the pIC50 under setting [1] is over 8.00.
As to `CCc1cc(OC)ccc1Nc1nc(=O)c(F)cn1Cc1cc(F)c(F)c(F)c1` [Compound I-1197], under setting [2], the negative logarithm of the IC50 (pIC50) was over 8.00.
Same read-out and setting: under `COc1cn(Cc2cc(F)cc(Cl)c2)c(Nc2cc(Cl)c(F)cc2C)nc1=O` [Compound I-0811] stands 7.00 to 8.00.
In the case of `COc1cn(Cc2ccc(Cl)cc2)c(Nc2cc(C)c(Cl)cc2C)nc1=O` [Compound I-0171], the pIC50 under setting [1] was 7.00 to 8.00.
With `COc1cc(F)c(Nc2nc(=O)cnn2Cc2cc(F)c(F)c(F)c2)cc1OC` [Compound I-1258], under setting [2], the pIC50 was over 8.00.
For the compound `COc1cn(Cc2ccccc2)c(Nc2cc(Cl)c(Cl)cc2C)nc1=O` [Compound I-0476], the pIC50 under setting [1] is over 8.00.
For `COc1cc(C)c(Nc2nc(=O)ccn2Cc2ccc(F)c(Cl)c2)cc1OC` [Compound I-1159], the pIC50 under setting [2] is over 8.00.
Consider `CCc1ccccc1Nc1nc(=O)c(OC)cn1Cc1cc(F)cc(F)c1` [Compound I-0327], for which the pIC50 under setting [1] was 7.00 to 8.00.
`COc1cn(Cc2ccccc2)c(Nc2ccc3ncsc3c2C)nc1=O` [Compound I-0855]: the pIC50 under setting [2] was 7.00 to 8.00.
Turning to `COc1cc(C)c(Nc2nc(=O)c(OC)cn2Cc2cc(F)cc(F)c2)cc1OC` [Compound I-0439], the pIC50 under setting [1] was over 8.00.
With `COc1cn(Cc2cc(F)cc(F)c2)c(Nc2cc(OC(F)F)ccc2C)nc1=O` [Compound I-0874], the negative-log IC50 (pIC50) under setting [2] is 7.00 to 8.00.
Regarding `Cc1cccc(Nc2nc(=O)c(Cl)cn2Cc2ccccc2)c1C` [Compound I-0158], the pIC50 under setting [1] is 7.00 to 8.00.
Still for that read-out and setting: for `COc1cn(Cc2cc(F)cc(F)c2)c(Nc2cc(N3CCCS3(=O)=O)ccc2C)nc1=O` [Compound I-0552] the value was 7.00 to 8.00; for `COc1cc(C)cc(Nc2nc(=O)c(OC)cn2Cc2ccc(F)c(Cl)c2)c1C` [Compound I-0424], over 8.00.
With `Cc1cc2c(cc1Nc1nc(=O)c(Cl)cn1Cc1ccccc1)OCCO2` [Compound I-0370], the pIC50 under setting [3] was 7.33.
As for `COc1cc(C)cc(Nc2nc(=O)c(OC)cn2Cc2cccc(F)c2)c1C` [Compound I-0405], under setting [3], the negative logarithm of the IC50 (pIC50) was 8.70.
Consider `COc1cn(Cc2ccc(F)c(F)c2)c(Nc2cc3[nH]ncc3cc2C)nc1=O` [Compound I-0491], for which the negative-log IC50 (pIC50) under setting [1] was over 8.00.
Consider `CCc1ccccc1Nc1nc(=O)c(OC)cn1Cc1ccc(F)c(F)c1` [Compound I-0674], for which the pIC50 under setting [2] is 7.00 to 8.00.
Regarding `COc1ccc(Nc2nc(=O)c(C)nn2Cc2cc(F)c(F)c(F)c2)c(C)c1` [Compound I-1277], the negative logarithm of the IC50 (pIC50) under setting [2] was over 8.00.
Same read-out and setting: for `COc1cn(Cc2cc(F)cc(F)c2)c(Nc2ccc(OC(F)(F)F)cc2C)nc1=O` [Compound I-0629] the value was 7.00 to 8.00.
`COc1cn(Cc2ccccc2C)c(Nc2cccc(C(F)(F)F)c2Cl)nc1=O` [Compound I-0014]: under setting [3], the pIC50 is 6.60.
For `COc1cn(Cc2ccccc2OC(F)F)c(Nc2cccc(Cl)c2C)nc1=O` [Compound I-0462], the pIC50 under setting [1] was 7.00 to 8.00.
As to `CN1CCc2c(cccc2Nc2nc(=O)c(F)cn2Cc2cc(F)c(F)c(F)c2)C1` [Compound I-1107], the negative logarithm of the IC50 (pIC50) under setting [2] is 7.00 to 8.00.
For the compound `COc1cn(Cc2cc(F)cc(Cl)c2)c(Nc2cccc3sccc23)nc1=O` [Compound I-0670], the negative-log IC50 (pIC50) under setting [3] is 7.70.
Consider `COc1cn(Cc2ccc(F)c(F)c2)c(Nc2ccc(OC(C)C)cc2C)nc1=O` [Compound I-0530], for which the pIC50 under setting [1] is 7.00 to 8.00.
In the case of `Cc1cc2[nH]ncc2cc1Nc1nc(=O)c(F)cn1Cc1ccc(F)c(F)c1` [Compound I-1095], the pIC50 under setting [2] is 7.00 to 8.00.
Same read-out and setting: for `COc1cn(Cc2ccccc2)c(Nc2cc(-c3cccnc3)ccc2C)nc1=O` [Compound I-0690] the value was 7.00 to 8.00.
For `COc1cn(Cc2cc(F)cc(F)c2)c(Nc2cc3[nH]ncc3cc2C)nc1=O` [Compound I-0597], the pIC50 under setting [3] was 7.70.
On to `COc1cn(Cc2ccccc2)c(Nc2cc(C)c(F)cc2C)cc1=O` [Compound I-0946], for which, under setting [2], the pIC50 is 6.00 to 6.30.
With `COc1ccc(C)c(Nc2cc(=O)c(OC)cn2Cc2ccccc2)c1` [Compound I-0952], the pIC50 under setting [2] was 6.30 to 7.00.

The record behind these values is patent US10774051B2, “6-membered heterocyclic derivatives and pharmaceutical composition comprising the same” (Shionogi & Co., Ltd., priority 2015, dated 2020).
